In patent US12410171B2, “Tropomyosin receptor kinase (TRK) degradation compounds and methods of use” (Cullgen (Shanghai), Inc., priority 2020, dated 2025):
pIC50: −log10 of the molar value. Read-outs that look alike come from different tables or passages of the source.

Experiments:
[1] = test system: KM12 cells; assay: KM12 cell viability (CellTiter-Glo); type: cell-based; conditions: Homo sapiens
Summary of the method: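 Three-day exposure of KM12 cells (5000/well, RPMI 1640 with 10% FBS, 37 °C, 5% CO2) to compound dilution series, 3-fold over 8 or 11 points (top 1000 nM in the 8-point format) or 2-fold over 12. CellTiter-Glo readout, with IC50 fitted by nonlinear least-squares regression.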

[2] = biological target: T1, TPM3-TRKA fusion protein (Homo sapiens, UniProt P04629); assay: TPM3-TRKA fusion protein levels in KM12 cells (Western blot); type: cell-based; conditions: read-out: Degradation (at 10 nM)
T1 construct: The resulted chimeric proteins always retain the kinase domain of TRK proteins; TPM3 (fusion partner, N-terminal part of tropomyosin alpha-3, P06753); endogenous in cells; host or cells: KM12 colon cancer cells; the other entry of the earlier key: TPM3 (P06753, Tropomyosin alpha-3 chain)
T1 sequence (P04629 with tags, fused parts or gaps): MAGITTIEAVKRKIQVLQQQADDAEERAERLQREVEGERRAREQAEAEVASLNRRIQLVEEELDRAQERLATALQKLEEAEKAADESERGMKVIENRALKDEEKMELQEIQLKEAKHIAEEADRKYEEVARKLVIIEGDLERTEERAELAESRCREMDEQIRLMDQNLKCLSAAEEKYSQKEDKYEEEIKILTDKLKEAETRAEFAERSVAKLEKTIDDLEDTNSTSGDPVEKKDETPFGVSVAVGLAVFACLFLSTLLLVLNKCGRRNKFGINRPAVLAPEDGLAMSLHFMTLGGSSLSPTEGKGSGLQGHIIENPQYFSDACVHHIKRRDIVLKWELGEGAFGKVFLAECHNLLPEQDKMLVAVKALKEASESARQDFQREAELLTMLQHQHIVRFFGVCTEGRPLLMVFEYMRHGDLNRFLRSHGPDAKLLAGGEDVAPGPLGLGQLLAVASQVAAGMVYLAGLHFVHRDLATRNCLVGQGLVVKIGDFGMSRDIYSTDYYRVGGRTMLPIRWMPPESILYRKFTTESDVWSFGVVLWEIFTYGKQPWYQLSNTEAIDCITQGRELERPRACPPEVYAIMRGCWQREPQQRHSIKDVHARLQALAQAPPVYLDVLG
Summary of the method: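 TPM3-TRKA levels were assessed by Western blot with chemiluminescent detection and band densitometry, after SDS-PAGE of BCA-normalized RIPA lysates. Before lysis, KM12 cells received DMSO, compounds or matched control compounds at concentrations including 0.1, 1, 10 and 100 nM and 0.4–30 nM. Exposures lasted 4 h, 8–16 h or 16 h.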

[3] = 72 h, KM12 cell viability, 11-point 3-fold serial dilution, 3 days, CellTiter-Glo, read-out: IC50
[4] = 16 h, TPM3-TRKA degradation in KM12 cells at 10 nM

Row | Structure (SMILES) | pIC50 [1, 3] | percent degradation of TPM3-TRKA protein at 0.01 µM [2, 4] | pIC50 ([1]; KM12, 72 h) | percent degradation of TPM3-TRKA protein at 0.01 µM ([2]; KM12, 16 h)
1 | O=C1CCC(N2C(=O)c3ccc(NCCOCCC(=O)N4CCC(Nc5cccc(C(=O)Nc6cnn7ccc(N8CCC[C@@H]8c8cc(F)ccc8F)nc67)n5)CC4)cc3C2=O)C(=O)N1 (stereo partly drawn) [CPD-473, N-(5-((R)-2-(2,5-difluorophenyl)pyrrolidin-1-yl)pyrazolo[1,5-a]pyrimidin-3-yl)-6-((1-(3-(2-((2-(2,6-dioxopiperidin-3-yl)-1,3-dioxoisoindolin-5-yl)amino)ethoxy)propanoyl)piperidin-4-yl)amino)picolinamide] | 7.62 | > 80% | – | –
2 | O=C1CCC(N2C(=O)c3ccc(NCCOCCOCCC(=O)N4CCC(Nc5cccc(C(=O)Nc6cnn7ccc(N8CCC[C@@H]8c8cc(F)ccc8F)nc67)n5)CC4)cc3C2=O)C(=O)N1 (stereo partly drawn) [CPD-474, N-(5-((R)-2-(2,5-difluorophenyl)pyrrolidin-1-yl)pyrazolo[1,5-a]pyrimidin-3-yl)-6-((1-(3-(2-(2-((2-(2,6-dioxopiperidin-3-yl)-1,3-dioxoisoindolin-5-yl)amino)ethoxy)ethoxy)propanoyl)piperidin-4-yl)amino)picolinamide] | 7.74 | > 80% | – | –
3 | O=C1CCC(N2C(=O)c3ccc(NCCOCCOCCOCCC(=O)N4CCC(Nc5cccc(C(=O)Nc6cnn7ccc(N8CCC[C@@H]8c8cc(F)ccc8F)nc67)n5)CC4)cc3C2=O)C(=O)N1 (stereo partly drawn) [CPD-475, N-(5-((R)-2-(2,5-difluorophenyl)pyrrolidin-1-yl)pyrazolo[1,5-a]pyrimidin-3-yl)-6-((1-(3-(2-(2-(2-((2-(2,6-dioxopiperidin-3-yl)-1,3-dioxoisoindolin-5-yl)amino)ethoxy)ethoxy)ethoxy)propanoyl)piperidin-4-yl)amino)picolinamide] | 7.77 | > 80% | – | –
4 | O=C1CCC(N2C(=O)c3ccc(NCCOCCOCCOCCOCCC(=O)N4CCC(Nc5cccc(C(=O)Nc6cnn7ccc(N8CCC[C@@H]8c8cc(F)ccc8F)nc67)n5)CC4)cc3C2=O)C(=O)N1 (stereo partly drawn) [CPD-476, N-(5-((R)-2-(2,5-difluorophenyl)pyrrolidin-1-yl)pyrazolo[1,5-a]pyrimidin-3-yl)-6-((1-(1-((2-(2,6-dioxopiperidin-3-yl)-1,3-dioxoisoindolin-5-yl)amino)-3,6,9,12-tetraoxapentadecan-15-oyl)piperidin-4-yl)amino)picolinamide] | 7.65 | > 80% | – | –
5 | O=C1CCC(N2C(=O)c3ccc(NCCOCCOCCOCCOCCOCCC(=O)N4CCC(Nc5cccc(C(=O)Nc6cnn7ccc(N8CCC[C@@H]8c8cc(F)ccc8F)nc67)n5)CC4)cc3C2=O)C(=O)N1 (stereo partly drawn) [CPD-477, N-(5-((R)-2-(2,5-difluorophenyl)pyrrolidin-1-yl)pyrazolo[1,5-a]pyrimidin-3-yl)-6-((1-(1-((2-(2,6-dioxopiperidin-3-yl)-1,3-dioxoisoindolin-5-yl)amino)-3,6,9,12,15-pentaoxaoctadecan-18-oyl)piperidin-4-yl)amino)picolinamide] | 7.29 | 50 to 80% | – | –
6 | NC(=O)C1CCN(c2cc(CN3CCN(C(=O)CNc4cccc5c4C(=O)N(C4CCC(=O)NC4=O)C5=O)CC3)ccc2NC(=O)c2coc(N3CCOCC3)n2)CC1 (stereo not shown) [CPD-478, N-(2-(4-carbamoylpiperidin-1-yl)-4-((4-((2-(2,6-dioxopiperidin-3-yl)-1,3-dioxoisoindolin-4-yl)glycyl)piperazin-1-yl)methyl)phenyl)-2-morpholinooxazole-4-carboxamide] | – | – | 7.55 | > 80%
7 | NC(=O)C1CCN(c2cc(CN3CCN(C(=O)CCNc4cccc5c4C(=O)N(C4CCC(=O)NC4=O)C5=O)CC3)ccc2NC(=O)c2coc(N3CCOCC3)n2)CC1 (stereo not shown) [CPD-479, N-(2-(4-carbamoylpiperidin-1-yl)-4-((4-(3-((2-(2,6-dioxopiperidin-3-yl)-1,3-dioxoisoindolin-4-yl)amino)propanoyl)piperazin-1-yl)methyl)phenyl)-2-morpholinooxazole-4-carboxamide] | 6.88 | 50 to 80% | – | –
8 | NC(=O)C1CCN(c2cc(CN3CCN(C(=O)CCCNc4cccc5c4C(=O)N(C4CCC(=O)NC4=O)C5=O)CC3)ccc2NC(=O)c2coc(N3CCOCC3)n2)CC1 (stereo not shown) [CPD-480, N-(2-(4-carbamoylpiperidin-1-yl)-4-((4-(4-((2-(2,6-dioxopiperidin-3-yl)-1,3-dioxoisoindolin-4-yl)amino)butanoyl)piperazin-1-yl)methyl)phenyl)-2-morpholinooxazole-4-carboxamide] | 7.66 | > 80% | – | –
9 | NC(=O)C1CCN(c2cc(CN3CCN(C(=O)CCCCNc4cccc5c4C(=O)N(C4CCC(=O)NC4=O)C5=O)CC3)ccc2NC(=O)c2coc(N3CCOCC3)n2)CC1 (stereo not shown) [CPD-481, N-(2-(4-carbamoylpiperidin-1-yl)-4-((4-(5-((2-(2,6-dioxopiperidin-3-yl)-1,3-dioxoisoindolin-4-yl)amino)pentanoyl)piperazin-1-yl)methyl)phenyl)-2-morpholinooxazole-4-carboxamide] | 7.77 | > 80% | – | –
10 | NC(=O)C1CCN(c2cc(CN3CCN(C(=O)CCCCCNc4cccc5c4C(=O)N(C4CCC(=O)NC4=O)C5=O)CC3)ccc2NC(=O)c2coc(N3CCOCC3)n2)CC1 (stereo not shown) [CPD-482, N-(2-(4-carbamoylpiperidin-1-yl)-4-((4-(6-((2-(2,6-dioxopiperidin-3-yl)-1,3-dioxoisoindolin-4-yl)amino)hexanoyl)piperazin-1-yl)methyl)phenyl)-2-morpholinooxazole-4-carboxamide] | 8.33 | > 80% | – | –
11 | NC(=O)C1CCN(c2cc(CN3CCN(C(=O)CCCCCCNc4cccc5c4C(=O)N(C4CCC(=O)NC4=O)C5=O)CC3)ccc2NC(=O)c2coc(N3CCOCC3)n2)CC1 (stereo not shown) [CPD-483, N-(2-(4-carbamoylpiperidin-1-yl)-4-((4-(7-((2-(2,6-dioxopiperidin-3-yl)-1,3-dioxoisoindolin-4-yl)amino)heptanoyl)piperazin-1-yl)methyl)phenyl)-2-morpholinooxazole-4-carboxamide] | 8.26 | > 80% | – | –
12 | NC(=O)C1CCN(c2cc(CN3CCN(C(=O)CCCCCCCNc4cccc5c4C(=O)N(C4CCC(=O)NC4=O)C5=O)CC3)ccc2NC(=O)c2coc(N3CCOCC3)n2)CC1 (stereo not shown) [CPD-484, N-(2-(4-carbamoylpiperidin-1-yl)-4-((4-(8˜ ((2-(2,6-dioxopiperidin-3-yl)-1,3-dioxoisoindolin-4-yl)amino)octanoyl)piperazin-1-yl)methyl)phenyl)-2-morpholinooxazole-4-carboxamide] | 7.38 | > 80% | – | –
13 | NC(=O)C1CCN(c2cc(CN3CCN(C(=O)CCOCCNc4cccc5c4C(=O)N(C4CCC(=O)NC4=O)C5=O)CC3)ccc2NC(=O)c2coc(N3CCOCC3)n2)CC1 (stereo not shown) [CPD-485, N-(2-(4-carbamoylpiperidin-1-yl)-4-((4-(3-(2-((2-(2,6-dioxopiperidin-3-yl)-1,3-dioxoisoindolin-4-yl)amino)ethoxy)propanoyl)piperazin-1-yl)methyl)phenyl)-2-morpholinooxazole-4-carboxamide] | 7.03 | 50 to 80% | – | –
14 | NC(=O)C1CCN(c2cc(CN3CCN(C(=O)CCOCCOCCOCCNc4cccc5c4C(=O)N(C4CCC(=O)NC4=O)C5=O)CC3)ccc2NC(=O)c2coc(N3CCOCC3)n2)CC1 (stereo not shown) [CPD-487, N-(2-(4-carbamoylpiperidin-1-yl)-4-((4-(3-(2-(2-(2-((2-(2,6-dioxopiperidin-3-yl)-1,3-dioxoisoindolin-4-yl)amino)ethoxy)ethoxy)ethoxy)propanoyl)piperazin-1-yl)methyl)phenyl)-2-morpholinooxazole-4-carboxamide] | 6.92 | 50 to 80% | – | –
15 | Cc1ncsc1-c1ccc(CNC(=O)[C@@H]2C[C@@H](O)CN2C(=O)[C@@H](NC(=O)CCCCCCCCC(=O)N2CCN(Cc3ccc(NC(=O)c4coc(N5CCOCC5)n4)c(N4CCC(C(N)=O)CC4)c3)CC2)C(C)(C)C)cc1 [CPD-493, N-(2-(4-carbamoylpiperidin-1-yl)-4-((4-(10-(((S)-1-((2S,4R)-4-hydroxy-2-((4-(4-methylthiazol-5-yl)benzyl)carbamoyl)pyrrolidin-1-yl)-3,3-dimethyl-1-oxobutan-2-yl)amino)-10-oxodecanoyl)piperazin-1-yl)methyl)phenyl)-2-morpholinooxazole-4-carboxamide] | 7.34 | 50 to 80% | – | –
16 | COc1ccc(COc2ccc(Cn3c(N)nc4cc(-c5cnn(CC(=O)NCCNc6cccc7c6C(=O)N(C6CCC(=O)NC6=O)C7=O)c5)cnc43)cc2OC)cc1 (stereo not shown) [CPD-498, 2-(4-(2-amino-3-(3-methoxy-4-((4-methoxybenzyl)oxy)benzyl)-3H-imidazo[4,5-b]pyridin-6-yl)-1H-pyrazol-1-yl)-N-(2-((2-(2,6-dioxopiperidin-3-yl)-1,3-dioxoisoindolin-4-yl)amino)ethyl)acetamide] | – | – | 7.44 | 50 to 80%
17 | COc1ccc(COc2ccc(Cn3c(N)nc4cc(-c5cnn(CC(=O)NCCCCNc6cccc7c6C(=O)N(C6CCC(=O)NC6=O)C7=O)c5)cnc43)cc2OC)cc1 (stereo not shown) [CPD-499, 2-(4-(2-amino-3-(3-methoxy-4-((4-methoxybenzyl)oxy)benzyl)-3H-imidazo[4,5-b]pyridin-6-yl)-1H-pyrazol-1-yl)-N-(4-((2-(2,6-dioxopiperidin-3-yl)-1,3-dioxoisoindolin-4-yl)amino)butyl)acetamide] | 7.95 | > 80% | – | –
